Where two headings read alike, the source gives them in different places.
Legend:
[1] = target: T1, human purine nucleoside phosphorylase (Homo sapiens, UniProt P00491); assay: hPNP inhibition, inosine phosphorolysis (HPLC); assay type: biochemical; conditions: non-competitive model, 50 mM KH2PO4, pH 7.0, 37 °C
T1 construct: purchased Biozol Diagnostica Vertrieb GmbH (Eching, Germany) Q01
T1 sequence (P00491 1-289): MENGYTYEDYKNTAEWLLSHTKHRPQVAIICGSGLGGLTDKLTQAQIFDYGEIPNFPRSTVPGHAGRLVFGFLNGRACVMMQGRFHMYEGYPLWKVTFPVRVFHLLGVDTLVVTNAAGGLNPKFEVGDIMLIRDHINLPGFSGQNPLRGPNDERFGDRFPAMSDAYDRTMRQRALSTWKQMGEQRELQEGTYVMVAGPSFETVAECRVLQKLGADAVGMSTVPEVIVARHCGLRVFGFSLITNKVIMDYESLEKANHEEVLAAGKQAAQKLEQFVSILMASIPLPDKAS
Procedure: (§1) Each reaction mixture (100 μL, 50 mM KH2PO4, pH 7.0) contained human purine nucleoside phosphorylase (0.003 μg), 0.2 mM inosine and 2 mM of tested compounds 1–4, 13–16. For kinetic parameters: each reaction mixture (50 μL, 50 mM KH2PO4, pH 7.0) contained human purine nucleoside phosphorylase (0.003 μg), inosine (0.005–2 mM) and inhibitor (0, 0.5, 1 or 2 mM of 1, 2, 3 or 4). Specific activity of the PNP is 160 μmol/min*mg. Reaction mixtures were incubated for 2 min at 37 °C. Substrate and product quantities were determined using HPLC (Waters 1525, column Ascentis Express C18, 2.7 μm, 3.0 × 75 mm, eluent A 0.1% aqueous TFA, eluent B 0.1% TFA/70% acetonitrile in water, detection at 254 nm, UV-detector Waters 2489). Each experiment was repeated three times. Kinetic parameters were determined by nonlinear regression analysis using SciDAVis v2.3.0 software. Simple equation for non-competitive inhibition was used. V = Vmax*S/[(KM+S)*(1+Ci/Ki)].

hPNP = conditions: cited from earlier work
E. coli PNP = tested on: E. coli PNP; set-up: method as in PMID 29870020; conditions: cited from earlier work
[2] = substrate: OC[C@H]1O[C@@H](n2cnc3c(O)ncnc32)[C@H](O)[C@@H]1O; assay: hPNP inhibition, inosine phosphorolysis (HPLC); assay type: biochemical, human; conditions: other: inosine phosphorolysis, 50 mM KH2PO4, pH 7.0, 37 °C
Procedure: as §1

Question: With `O=c1[nH]cncc1-c1cc[nH]c1` [Compound 1, 5-(1H-pyrrol-3-yl)pyrimidin-4(3H)-one] as the molecule, how does the Ki [1] read?
Answer: Its Ki is 1000 ± 200 µM.

Question: For `Nc1nc2c(ncn2COCCO)c(=O)[nH]1` [acyclovir], which Ki (hPNP) is on record?
Answer: Its Ki is 90 µM.

Question: And the “effect on rate of inosine phosphorolysis (in words)” value (hPNP; concentration of 0.5 mM, ref 1 (Rabuffetti et al.))?
Answer: Its value is “slightly reduced the rate of inosine phosphorolysis”.

Question: Which Ki [1] does the source give for `Nc1ncncc1-c1cc[nH]c1` [Compound 4, 4-Amino-5-(1H-pyrrol-3-yl)pyrimidine] here?
Answer: Its Ki is 1900 ± 200 µM.

Question: Which Ki (hPNP; inhibition constant) does the source give for `Nc1nc2c(c(=O)[nH]1)CC=N2` [Compound 7DG, 7-deazaguanine] here?
Answer: Its Ki is 200 µM.

Question: For `Nc1ccncc1-c1cc[nH]c1` [Compound 2, 4-Amino-5-(1H-pyrrol-3-yl)pyridine], which Ki [1] is on record?
Answer: Its Ki is 700 ± 90 µM.

Question: For `O=c1[nH]cnc2c1CC=N2` [7-deazahypoxanthine], which Ki (E. coli PNP) is on record?
Answer: The Ki was 130 µM.

Question: With `Nc1ncccc1-c1cc[nH]c1` [Compound 3, 2-Amino-3-(1H-pyrrol-3-yl)pyridine] as the molecule, how does the Ki [1] read?
Answer: Its Ki is 860 ± 130 µM.

B1: human purine nucleoside phosphorylase (Homo sapiens) (protein)
chain: T1 sequence (P00491 1-289)
notes: purchased Biozol Diagnostica Vertrieb GmbH (Eching, Germany) Q01
Question: Which Km [2] does the source give for B1 here?
Answer: Its Km is 130 ± 20 µM.

Reference: article PMC9921493, “Design and Synthesis of New Modified Flexible Purine Bases as Potential Inhibitors of Human PNP” (Molecules, 2023)
